{"source": "patent US6602500B1", "about": "“Paenibacillus polymyxa strain ATCC 202127 for biocontrol of bacteria and fungi” (The Governors of the University of Alberta, priority 1998, dated 2003)", "tested_on": "L. maculans", "assay": "Inhibition of growth of L. maculans by other strains and polymyxins (qualitative)", "type": "cell-based, Leptosphaeria maculans", "data": [{"substance": "polymyxins", "values": [{"measurement": "inhibitory effect against L. maculans", "value": "ineffective"}]}]}
